Columns and labels:
[1] = test system: Arabidopsis; experiment: Paraquat tolerance assay, dose effect of paraquat on growth; format: in vivo
Protocol: In light-exposed plants, paraquat accepts electrons from photosystem I and transfers them to molecular oxygen. In this manner, destructive reactive oxygen species are produced. A range of paraquat concentrations were tested in Arabidopsis. […] Compared to wild-type plants, mutant plants have larger size and less-bleached leaves under these conditions. A quantitative assay based on leaf area and color (similar to low N plate analysis) can be easily integrated into this screen.
The dose effect of paraquat on Arabidopsis growth was determined. […] Therefore this concentration was used for paraquat resistance assay. […] Tsu can serve as a positive control for this assay.
Seeds were surface sterilized and stratified for 96 hrs. 18 seeds for each tested line and Col-0 were inoculated in one plate, then cultured in a growth chamber programmed for 16 h of light at 22° C. temperature, 150 μE light intensity and 50% relative humidity. Growth phenotype was scored based on leaf size and color at 7-day-after inoculation.
Seeds were inoculated on a square paraquat plate. 18 seeds of test lines and 18 seeds of Col-0 were evenly put on the plate side by side. Plates were then cultured in the chambers set at 16 h of light at 22° C. temperature, 150 μE light intensity and 50% relative humidity.

[2] = test system: Arabidopsis; experiment: Kill curves for individual osmotic stress agents; format: in vivo; conditions: kill curve experiments, each stress agent individually in the media
Text: The standardization of growth conditions and generation of kill curves for various osmotic stress agents individually was done before the development of quad stress assay conditions. […] As there were four stress agents being used together, a quarter of each together in a solution would denote 100% stress or an osmotic pressure of 1.23 MPa. Therefore the following concentrations of each component were used in “100% quad media”.
Assay Conditions: Seeds were surface sterilized and stratified for 48 hrs. About 100 seeds were inoculated in one plate and cultured in a growth chamber programmed for 16 h of light at 22° C. temperature and 50% relative humidity. Germination was scored as the emergence of radicle. Assay Plan: A 6-day assay and an extended 10-day assay were done to test the seeds from the 48 transgenic Arabidopsis lines for osmotic stress tolerance. • Day 0—Surface sterilized seeds of different drought leads and stratify. • Day 2—Inoculated onto quad media. • Day 4—Counted for germination (48 hrs). • Day 5—Counted for germination (72 hrs)/Take pictures or Scan plates from 48 hrs to 96 hrs. • Day 6—Counted for germination (96 hrs). • For the extended 10-day assay, germination was scored from 48 hrs to 96 hrs. On day 7, 8, 9 and 10, the emerged seedlings were checked for greenness and four leaf stage. Preparation of Media • Germination medium (GM or 0% quad media) for 1 liter: […]

SMILES | effect on Col-0 plants ([1]; 0.03 μM paraquat) | concentration that greatly inhibited Arabidopsis growth ([1]; 7-day growth on plates) | concentration at which the effect on growth can be detected ([1]; in vivo) | concentration giving dose-dependent growth inhibition and leaf bleach ([1]; range of paraquat concentrations tested in Arabidopsis) | lethal concentration [2]
C[n+]1ccc(-c2cc[n+](C)cc2)cc1 [paraquat] | plants died one-week-after germination | 0.03 µM | 0.01 µM | 0.01 to 0.1 µM | 
OC[C@@H](O)[C@@H](O)[C@H](O)[C@@H](O)CO [sorbitol] |  |  |  |  | 500 mM
[Cl-].[Na+] [NaCl, sodium chloride] |  |  |  |  | 150 mM
OC[C@@H](O)[C@@H](O)[C@H](O)[C@H](O)CO [mannitol] |  |  |  |  | 500 mM
